# Reference: ChEMBL document CHEMBL4482324, “Ash1l inhibitors and methods of treatment therewith” (2017)
# pIC50: −log10 of the molar value. Active and inactive are the calls of the source. The rule behind the calls is not given here.
# Key:
# [1] = target: Histone-lysine N-methyltransferase ASH1L (Mus musculus) (UniProt Q99MY8); assay: Inhibition of ASH1L in MLL-AF9 transformed mouse MA9 cells assessed as downregulation of Meis1 gene expression at 6 to 12 uM by quantitative RT-PCR analysis
# [2] = Cytotoxicity in Hoxa9/Meis1 transformed mouse HM2 cells assessed as reduction in cell viability incubated for 12 days with fresh compound replacement for every 4 days by MTT assay; assay type: cell-based
# [3] = tested on: MV4-11; assay: Cytotoxicity in human MV4-11 cells assessed as reduction in cell viability incubated for 12 days with fresh compound replacement for every 4 days by MTT assay; assay type: functional
# [4] = target: Histone-lysine N-methyltransferase ASH1L (Homo sapiens, UniProt Q9NR48); assay: Inhibition of MOCR-fused ASH1L SET-BAH ( 2069 to 2833 amino acids) (unknown origin) expressed as in Escherichia coli BL21 (DE3) T1R cells using SAM and chicken mono/dinucleosomes incubated for 1 hr by scintillation counting assay
# [5] = target: Histone-lysine N-methyltransferase ASH1L (Mus musculus) (UniProt Q99MY8); assay: Inhibition of ASH1L in MLL-AF9 transformed mouse MA9 cells assessed as downregulation of HOX9 gene expression at 6 to 12 uM by quantitative RT-PCR analysis
# [6] = Effect on HOX7 gene expression in Hoxa9/Meis1 transformed mouse HM2 cells at 6 to 12 uM by quantitative RT-PCR analysis; assay type: ADME
# [7] = target: Histone-lysine N-methyltransferase ASH1L (Mus musculus) (UniProt Q99MY8); assay: Inhibition of ASH1L in MLL-AF9 transformed mouse MA9 cells assessed as downregulation of HOX7 gene expression at 6 to 12 uM by quantitative RT-PCR analysis
# [8] = species: Mus musculus; assay: Induction of cell differentiation in MLL-AF9 transformed mouse MA9 cells at 6 to 12 uM; assay type: functional
# [9] = Effect on Meis1 gene expression in Hoxa9/Meis1 transformed mouse HM2 cells at 6 to 12 uM by quantitative RT-PCR analysis; assay type: ADME
# [10] = Cytotoxicity in MLL-AF9 transformed mouse MA9 cells assessed as reduction in cell viability incubated for 12 days with fresh compound replacement for every 4 days by MTT assay; assay type: functional
# [11] = target: Histone-lysine N-methyltransferase ASH1L (Mus musculus) (UniProt Q99MY8); assay: Inhibition of ASH1L in MLL-AF9 transformed mouse MA9 cells assessed as downregulation of HOX10 gene expression at 6 to 12 uM by quantitative RT-PCR analysis
# [12] = Effect on HOX10 gene expression in Hoxa9/Meis1 transformed mouse HM2 cells at 6 to 12 uM by quantitative RT-PCR analysis; assay type: ADME
# [13] = tested on: MOLM-13; assay: Cytotoxicity in human MOLM13 cells assessed as reduction in cell viability incubated for 12 days with fresh compound replacement for every 4 days by MTT assay; assay type: functional
# [14] = Induction of cell differentiation in Hoxa9/Meis1 transformed mouse HM2 cells at 6 to 12 uM
# [15] = Effect on HOX9 gene expression in Hoxa9/Meis1 transformed mouse HM2 cells at 6 to 12 uM by quantitative RT-PCR analysis; assay type: ADME
# [16] = target: Histone-lysine N-methyltransferase ASH1L (Mus musculus) (UniProt Q99MY8); assay: Inhibition of ASH1L in MLL-AF9 transformed mouse MA9 cells assessed as downregulation of Meis1 gene expression at 1.5 to 6 uM by quantitative RT-PCR analysis
# [17] = tested on: SEM cells; assay: Cytotoxicity in human SEM cells assessed as reduction in cell viability incubated for 12 days with fresh compound replacement for every 4 days by MTT assay; assay type: functional
# [18] = tested on: RS4-11; assay: Cytotoxicity in human RS4:11 cells assessed as reduction in cell viability incubated for 12 days with fresh compound replacement for every 4 days by MTT assay; assay type: functional
# [19] = target: Histone-lysine N-methyltransferase ASH1L (Mus musculus) (UniProt Q99MY8); assay: Inhibition of ASH1L in MLL-AF9 transformed mouse MA9 cells assessed as downregulation of HOX10 gene expression at 1.5 to 6 uM by quantitative RT-PCR analysis
# [20] = target: Histone-lysine N-methyltransferase ASH1L (Mus musculus) (UniProt Q99MY8); assay: Inhibition of ASH1L in MLL-AF9 transformed mouse MA9 cells assessed as downregulation of HOX9 gene expression at 1.5 to 6 uM by quantitative RT-PCR analysis
Compound,pIC50 [4],other results
NC(=S)c1cccc(-c2c[nH]c3ccc(O)cc23)c1,< 4.00,inhibition [1]: inactive; GI50 at 288 h [2]: 62 µM; GI50 [3]: 27 µM; inhibition [5]: inactive; Activity [6]: Non-Toxic; inhibition [7]: inactive; Activity [9]: Non-Toxic; GI50 [10]: 43 µM; inhibition [11]: inactive; Activity [12]: Non-Toxic; GI50 [13]: 38 µM; Activity [15]: Non-Toxic
NC(=S)c1cccc(-c2ccccn2)c1,< 4.00,
NC(=S)c1cc(O)cc(-c2cn(CCCC(F)(F)F)c3cc(N)ccc23)c1,4.00 to 4.70,
NC(=S)c1cc(-c2cccc3[nH]ccc23)ccc1N,< 4.00,
NC(=S)c1cccc(-c2cccc3[nH]ccc23)c1O,< 4.00,
NC(=S)c1ccc2cc[nH]c2c1,< 4.00,
NC(=S)c1cccc(Oc2ccccc2)c1,< 4.00,
NC(=S)c1cc(O)cc(-c2cccc3[nH]ccc23)c1,< 4.00,
NC(=S)c1cccc(-c2cccc3[nH]c(CNCCCO)cc23)c1,< 4.00,
CNc1ccc2c(-c3cccc(C(N)=S)c3)c[nH]c2c1,4.00 to 4.70,
CS(=O)(=O)N1CCC(n2cc(-c3cccc(C(N)=S)c3)c3cc(F)ccc32)CC1,4.00 to 4.70,
Cn1ccc2c(-c3cccc(C(N)=S)c3)cccc21,4.00 to 4.70,
CC(O)Cn1cc(-c2cccc(C(N)=S)c2)c2ccccc21 (stereo unspecified),4.00 to 4.70,
Cc1cc(O)ccc1-c1cncc(C(N)=S)c1,< 4.00,
NC(=S)c1cccc(-c2ccc(O)cc2)n1,< 4.00,
NC(=S)c1cccc(-c2c[nH]c3cc(CNC=O)ccc23)c1,4.00 to 4.70,

# More lines, main results first:
pIC50 [4],Compound,other results
5.34,NC(=S)c1cccc(-c2cn(CC(CF)CF)c3cc(N)ccc23)c1,inhibition [1]: Active; GI50 at 288 h [2]: 33 µM; GI50 [3]: 2 µM; inhibition [5]: Active; Activity [6]: Non-Toxic; inhibition [7]: Active; Activity [8]: Active; Activity [9]: Non-Toxic; GI50 [10]: 6 µM; inhibition [11]: Active; Activity [12]: Non-Toxic; GI50 [13]: 9 µM; Activity [14]: Non-Toxic; Activity [15]: Non-Toxic
> 4.70,NC(=S)c1cccc(-c2cn(CCCC(F)(F)F)c3cc(-c4ccn[nH]4)ccc23)c1,GI50 [3]: 1.8 µM; inhibition [16]: Active; GI50 [17]: 1.1 µM; GI50 [18]: 2.8 µM; inhibition [19]: Active; inhibition [20]: Active; GI50 [13]: 1.4 µM
4.00 to 4.70,NC(=S)c1cccc(-c2cn(CCO)c3ccccc23)c1,
> 4.70,NC(=S)c1cc(-c2cn(CC(CF)CF)c3cc(CO)ccc23)ccc1O,
> 4.70,OCc1ccc2c(-c3cccc4c3CNC4=S)cn(CCC(F)F)c2c1,
> 4.70,NCc1ccc2c(c1)c(CC(CF)CF)cn2-c1cccc(C(N)=S)c1,
> 4.70,NC(=O)c1cccc(-c2cn(CC(CF)CF)c3cc(N)ccc23)c1,
> 4.70,NC(=S)c1cccc(-c2cn(C3CCN(S(=O)(=O)CCCCCc4cccc5c4C(=O)N(C4CCC(=O)NC4=O)C5=O)CC3)c3cc(CNc4nnc(N)s4)ccc23)c1 (stereo unspecified),
> 4.70,CC(O)c1ccc2c(-c3cccc(C(N)=S)c3)cn(CC(CF)CF)c2c1 (stereo unspecified),
> 4.70,NC(=S)c1cccc(-c2cn(CCC(F)F)c3cc(CNc4c[nH]cn4)ccc23)c1,
> 4.70,NC(=S)c1cccc(-c2cn(CCCC(F)(F)F)c3cc(CNC(=O)c4csc(N)n4)ccc23)c1,
> 4.70,NC(=S)c1cccc(-c2cn(CC(CO)CO)c3cc(N)ccc23)c1,
> 4.70,NC(=S)c1cccc(-c2cn(CC(CO)C(F)F)c3cc(CO)ccc23)c1 (stereo unspecified),
> 4.70,Cc1ncsc1-c1ccc(CNC(=O)[C@@H]2C[C@@H](O)CN2C(=O)[C@@H](NC(=O)COCCOCCNC(=O)CCC(=O)Nc2ccc3c(-c4cccc(C(N)=S)c4)cn(CC(CF)CF)c3c2)C(C)(C)C)cc1,
> 4.70,NC(=S)c1cccc(-c2cc(CC(CF)CF)c3cc[nH]c3c2)c1,
> 4.70,NC(=S)c1cccc(-c2cn(C3CCC3)c3cc(CO)ccc23)c1,
> 4.70,NC(=S)c1cccc(-c2cn(CC(CF)CF)c3cc(NC(=O)c4cnc[nH]4)ccc23)c1,
> 4.70,CCCCn1cnc(CC(=O)NCc2ccc3c(-c4cccc(C(N)=S)c4)cn(C4CCOCC4)c3c2)c1,
> 4.70,NC(=S)c1cccc(-c2cn(CCC(F)F)c3cc(C(O)CO)ccc23)c1 (stereo unspecified),
> 4.70,CCC(O)c1ccc2c(-c3cccc(C(N)=S)c3)cn(CCC(F)F)c2c1 (stereo unspecified),
> 4.70,CCCS(=O)(=O)N1CCC(n2cc(-c3cccc(C(N)=S)c3)c3ccc(CNC(=O)Cc4cc(C)[nH]n4)cc32)CC1,
> 4.70,N#Cc1cccc(-c2cn(CC(CO)C(F)F)c3cc(N)ccc23)c1 (stereo unspecified),
